Laboratory results taken from paper PMC6934184, “Selective DNA-PKcs inhibition extends the therapeutic index of localized radiotherapy and chemotherapy” (The Journal of Clinical Investigation, 2019).

Target: T1, PTK2 (FAK) (Homo sapiens, UniProt Q05397)
T1 construct: purchased Thermo Fisher Scientific (Life Technologies) SelectScreen
Assay: SelectScreen Z'LYTE
Type: biochemical
Procedure, shortened: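 NU5455 was profiled across the SelectScreen Broad panel of kinase activity and binding assays. Z'LYTE reactions such as CSF1R ran at apparent Km ATP, while the Adapta CAMK1 assay used ATP listed as 10. Values are given as percent.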

T1 sequence (Q05397 whole entry): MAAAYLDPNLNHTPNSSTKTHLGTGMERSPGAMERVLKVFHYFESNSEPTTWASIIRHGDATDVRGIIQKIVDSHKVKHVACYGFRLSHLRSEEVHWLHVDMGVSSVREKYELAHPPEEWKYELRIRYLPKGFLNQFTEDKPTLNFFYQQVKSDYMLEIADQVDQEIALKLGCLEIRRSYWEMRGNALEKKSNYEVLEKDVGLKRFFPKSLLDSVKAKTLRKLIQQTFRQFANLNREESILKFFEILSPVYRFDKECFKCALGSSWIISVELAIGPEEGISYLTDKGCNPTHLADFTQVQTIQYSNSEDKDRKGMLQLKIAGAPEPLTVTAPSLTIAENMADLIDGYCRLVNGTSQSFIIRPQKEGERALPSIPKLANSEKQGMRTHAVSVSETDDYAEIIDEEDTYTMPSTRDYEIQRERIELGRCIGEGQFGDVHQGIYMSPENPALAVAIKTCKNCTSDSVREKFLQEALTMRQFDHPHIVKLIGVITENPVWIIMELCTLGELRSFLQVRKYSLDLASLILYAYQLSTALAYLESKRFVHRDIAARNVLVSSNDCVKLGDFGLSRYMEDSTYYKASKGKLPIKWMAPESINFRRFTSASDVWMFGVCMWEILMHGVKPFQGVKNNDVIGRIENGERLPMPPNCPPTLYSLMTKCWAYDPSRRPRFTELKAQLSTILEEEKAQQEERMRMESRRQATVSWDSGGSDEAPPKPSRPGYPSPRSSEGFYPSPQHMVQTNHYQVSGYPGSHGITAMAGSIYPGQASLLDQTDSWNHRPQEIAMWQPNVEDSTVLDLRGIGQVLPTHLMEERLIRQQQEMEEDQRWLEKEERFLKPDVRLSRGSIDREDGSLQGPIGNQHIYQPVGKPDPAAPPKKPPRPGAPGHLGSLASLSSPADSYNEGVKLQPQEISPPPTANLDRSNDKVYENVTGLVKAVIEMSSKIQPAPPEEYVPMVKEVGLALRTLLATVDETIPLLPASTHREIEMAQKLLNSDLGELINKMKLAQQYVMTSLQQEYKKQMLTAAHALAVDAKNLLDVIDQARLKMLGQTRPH

Work on CN(C(=O)CN1CCOCC1)c1ccc2sc3c(-c4cccc5c(=O)cc(N6CC7CCC(C6)O7)oc45)cccc3c2c1 [NU5455] yielded an inhibition at 1 µM of 5.1%.
